Non-standard residues stand in square brackets, D forms with d. No end group written: not given here. d = 2'-deoxy (DNA); r = 2'-OH (RNA)
Key:
[1] = system: xenografts of human malignant ascites (ovarian carcinoma); assay: In vivo antitumor activity in mice bearing xenografts of human malignant ascites; conditions: intraperitoneal treatment max 8 times within 30 days; DOX 2.5 mg/kg, CIS 2.5 mg/kg
Experimental: All mice received cancer cells from the same patient. When the tumors reached a size of about 0.3 cm^3 (15-20 days after transplantation), mice were treated intraperitoneally with the following formulations: (1) Saline (untreated control); (2) Liposomes (Lip); (3) LHRH; (4) DOX; (5) Lip-DOX; (6) Lip-DOX-BCL2 ASO; (7) Lip-DOX-MDR1 ASO; (8) Lip-DOX-BCL2-MDR1 ASO; (9) LHRH-Lip-DOX-BCL2-MDR1 ASO; (10) CIS; (11) Lip-CIS; (12) Lip-CIS-BCL2 ASO; (13) Lip-CIS-MDR1 ASO; (14) Lip-CIS-BCL2-MDR1 ASO; (15) LHRH-Lip-CIS-BCL2-MDR1 ASO; (16) DOX+CIS; (17) Lip-DOX+Lip-CIS; (18) Lip-DOX-BCL2 ASO+Lip-CIS-BCL2 ASO; (19) Lip-DOX-MDR1 ASO+Lip-CIS-MDR1 ASO; (20) Lip-DOX-BCL2-MDR1 ASO+Lip-CIS-BCL2-MDR1 ASO; (21) LHRH-Lip-DOX-BCL2-MDR1 ASO+LHRH-Lip-CIS-BCL2-MDR1 ASO. […] The animals were treated maximum 8 times over four weeks and the development of primary tumor and intraperitoneal metastases was monitored by fluorescent IVIS (Xenogen, Alameda, Calif.) and ultrasound Vevo 2100 (VisualSonics, Toronto, Canada) imaging systems. To initiate bioluminescence of cancer cells, 1× substrate/reaction buffer (Clontech, Mountain View, Calif.) was diluted 1:20 with DPBS and 100 μl of the solution was injected into each mouse. The bioluminescent images were taken 10 minutes after the injection of the substrate. The size of primary tumor was measured by a caliper. At the end of the experiments, tumors and ascites were excised and their mass was measured. Animal weight was evaluated every day during the treatment period. Changes in tumor size were used as an overall marker for antitumor activity.

MDR1 mRNA = assay: MDR1 gene expression in subcutaneous tumors, quantitative RT-PCR; type: in vivo, human; conditions: treated 8 times within 30 days, vs untreated control
Experimental: (§1) The expression of MDR1 and BCL2 genes was measured using a quantitative RT-PCR as previously described (Pakunlu et al. (2006) J. Control. Rel., 114:153-162). Gene expression was calculated as a percent of internal standard (β2-microglobulin). To identify the presence of BCL2, P-glycoprotein and Caspase 3 (CASP3) proteins, the immunohistochemical staining of paraffin-embedded tumor tissue slides was carried out. For BCL2 and CASP3, slides were deparaffinized in xylene for 5 min followed by progressive rehydration in 100%, 95%, 70% and 50% ethanol for 3 minutes during each step. Endogenous peroxidase activity was blocked by incubating slides in 3% H2O2 solution in methanol at room temperature for 10 minutes and washing in 300 ml PBS two times for 5 minutes. Slides then were stained with anti-mouse monoclonal antibodies for BCL2 conjugated with FITC (1:200 dilution; BioLegend, catalog number 633502, San Diego, Calif.) and for CASP3 conjugated with Alexa Flour 647 (1:200 dilution; BioLegend, catalog number 622702, San Diego, Calif.) by incubating for an hour, washed in 300 ml PBS two times for 5 minutes and analyzed by fluorescence microscopy. To identify the expression of P-glycoprotein, after deparaffinization and rehydration, the slides were stained using Vector® M.O.M. Immunodetection Kit (Vector Laboratories, Inc., Burlingame, Calif.). Mouse monoclonal antibody to P-glycoprotein (ab3366, 1:40 dilution) obtained from Abcam (Cambridge, Mass.) was used as primary antibody for the detection of P-glycoprotein. Biotinylated anti-mouse IgG Reagent (1:250 dilution, Vector Laboratories, Inc., Burlingame, Calif.) and HSP-Streptavidine Detection System (1:500 dilution, Vector Laboratories, Inc., Burlingame, Calif.) in combination with DAB substrate kit (Vector Laboratories, Inc., Burlingame, Calif.) for peroxidase were used for visualization. After staining, the slides were examined by light microscopy and photographed.

BCL2 mRNA = assay: BCL2 gene expression in subcutaneous tumors, quantitative RT-PCR; type: in vivo, human; conditions: treated 8 times within 30 days, vs untreated control
Experimental: as §1

Caspase 3 = assay: Immunohistochemical staining of tumor tissue for Caspase 3; type: in vivo, human; conditions: tumor tissue sections
Experimental: as §1, with “Mouse monoclonal antibody to P-glycoprotein (ab3366, 1:40 dilution) obtained from Abcam (Cambridge, Mass.) was used as primary antibody for the detection of P-glycoprotein. Biotinylated anti-mouse IgG Reagent (1:250 dilution, Vector Laboratories, Inc., Burlingame, Calif.) and HSP-Streptavidine Detection System (1:500 dilution, Vector Laboratories, Inc., Burlingame, Calif.) in combination with DAB substrate kit (Vector Laboratories, Inc., Burlingame, Calif.) for peroxidase were used for visualization. After staining, the slides were examined by light microscopy and photographed.” left out

[2] = system: tumor and malignant ascites; assay: Apoptosis induction in tumor and malignant ascites (cell death detection ELISA); type: in vivo, mice; conditions: histone-complexed DNA fragments
Experimental: (§2) Induction of apoptosis was analyzed by the measurement of the enrichment of histone-associated DNA fragments (mono- and oligo-nucleosomes) in homogenates of the tumor, malignant ascites and other organs (liver, kidney, lung, heart and brain) using anti-histone and anti-DNA antibodies by a cell death detection ELISA Plus kit (Roche, Nutley, N.J.) as previously described (Pakunlu et al. (2004) Cancer Res., 64:6214-6224; Dharap et al. (2005) Proc. Natl. Acad. Sci., 102:12962-12967; Dharap et al. (2003) Pharm. Res., 20:889-896).

[3] = Maximum tolerated dose from animal weight change; type: in vivo; conditions: mice; estimated from animal weight change after injection of increasing doses
[4] = system: subcutaneous tumor xenografts of human A549 cancer cells; assay: Antitumor activity in subcutaneous A549 xenografts; conditions: intratumoral 3 times within 10 days
Experimental: NCR nude mice (female, 6 weeks, 20 g) were purchased from Taconic Farms, Inc. (Germantown, N.Y.). […] Briefly, A549 human cancer cells transfected with luciferase (5×10^6) were subcutaneously transplanted into the flanks of female athymic nu/nu mice. According to the approved institutional animal use protocol, the tumors were measured by a caliper every other day and their volumes were calculated as d^2×D/2 where d and D are the shortest and longest diameter of the tumor in mm, respectively. When the tumor reached a mean size of 50 mm^3, mice were divided into seven groups and injected intratumorally 3 times within 10 days with 150 μL of the following formulations: (1) saline (control); (2) free non-bound LHRH; (3) free non-bound siRNA; (4) free non-bound CIS; (5) Mixture of CIS and SPIO-PPI G5; (6) Mixture of CIS and SPIO-PPI G5-siRNA; and (7) Mixture of CIS and SPIO-PPI G5-siRNA-PEG-LHRH complexes. The concentrations of CIS and siRNA in the formulations were 2.5 mg/kg and 30 μM, respectively. Changes in tumor size were monitored by real-time bioluminescence in anesthetized animals by IVIS imaging system (Xenogen Bioscience, Cranbury, N.J.).

[5] = system: healthy organs (liver, kidney, spleen, heart, lung and brain); assay: Apoptosis induction in healthy organs (cell death detection ELISA); type: in vivo, mice
Experimental: as §2

BCL2 gene = BCL2 gene expression, RT-PCR; type: cell-based, human; conditions: A2780 cells, BCL2 siRNA 1 μM delivered by the named carrier, 24 hours
Experimental: Reverse transcription-polymerase chain reaction (RT-PCR) was used for the analysis of gene expression (Pakunlu et al. (2004) Cancer Res., 64:6214-6224). […] After 24 hours, total cellular RNA was isolated using an RNeasy kit (Qiagen, Valencia, Calif.). […] After synthesis, the reaction mixture was immediately subjected to polymerase chain reaction (PCR), which was carried out using […] System 2400 (Perkin-Elmer, Shelton, Conn.). β2-microglobulin (β2-m) was used as an internal standard. The following pairs of primers were used: BCL2: [NT] (sense; SEQ ID NO: 6), [NT] (antisense; SEQ ID NO: 7); β2-m (internal […] (sense; SEQ ID NO: 8), [NT] (antisense; SEQ ID NO: 9). PCR regimen was as follows: 94° C. for 5 minutes; 94° C. for 1 minute, 55° C. for 1 minute, and 72° C. for 1 minute for 41 cycles; and 60° C. for 10 minutes. PCR products were separated in 4% NuSieve 3:1 Reliant-agarose gels (Lonza, Basel, Switzerland) in 1× Tris-borate EDTA buffer [0.089 mol/L Tris-borate, 0.002 mol/L EDTA (pH 8.3); Research Organics Inc., Cleveland, Ohio] by submarine electrophoresis. The gels were stained with EtBr and digitally photographed.

Compound | development and mass of intraperitoneal metastases and malignant ascites [1] | growth of primary subcutaneous tumor (volume) [1] | expression of MDR1 gene (MDR1 mRNA) | expression of BCL2 gene (BCL2 mRNA) | expression/activation of caspase 3 (Caspase 3) | apoptosis induction in tumor and malignant ascites [2] | maximum tolerated dose [3] | decrease of tumor volume/growth compared with untreated control ([4]; last day of treatment, CIS 2.5 mg/kg, siRNA 30 μM) | apoptosis induction in healthy organs [5] | tumor growth / antitumor activity [4] | expression of targeted BCL2 gene, from control value (BCL2 gene)
N.N.[Cl][Pt][Cl] [CIS, cisplatin] | more effective in limiting the growth of both primary tumor and malignant ascites when compared to corresponding DOX formulations | more effective in limiting the growth of both primary tumor and malignant ascites when compared to corresponding DOX formulations | statistically significant overexpression | statistically significant overexpression | activated caspase 3 | induced apoptosis | 2.5 mg/kg | 36.2% | – | – | –
Lys6-des-Gly10-Pro9-ethylamide (Gln-His-Trp-Ser-Tyr-DLys-Leu-Arg-Pro-NH-Et; SEQ ID NO: 3) (QHWSY[dK]LRP-NHEt) [LHRH] | did not influence | did not influence | did not change significantly | did not change significantly | – | did not induce detectable levels of apoptosis | – | – | did not induce detectable levels of apoptosis | did not significantly influence the growth of the tumor | –
COc1cccc2c1C(=O)c1c(O)c3c(c(O)c1C2=O)C[C@@](O)(C(=O)CO)C[C@@H]3O[C@H]1C[C@H](N)[C@H](O)[C@H](C)O1 [DOX, doxorubicin] | – | slowed down the growth | statistically significant overexpression | statistically significant overexpression | activated caspase 3 | induced apoptosis | 2.5 mg/kg | – | – | – | –
sense strand, 5′-CCU CGG GCU GUG CUC UUU U-dTdT-3′, SEQ ID NO: 10; antisense strand, 5′-AAA AGA GCA CAG CCC GAG G-dTdT-3′, SEQ ID NO: 11 (sense CCUCGGGCUGUGCUCUUUUTT; antisense AAAAGAGCACAGCCCGAGGTT; sugars from the 5' end r19 d2, backbone not given here) [naked non-specific siRNA, non-specific siRNA used as a negative control] | – | – | – | – | – | – | – | – | – | – | did not influenced

— patent publication US9289505B2, “Compositions and methods for delivering nucleic acid molecules and treating cancer” (Rutgers, The State University of New Jersey, priority 2010, dated 2016)
